Measured values reported in US4048430A, “Mercaptopseudotrisaccharides” (SmithKline Corporation, priority 1975, dated 1977).
In brackets after ≈: the same amount, converted by molar mass. Like-named read-outs stand apart in the source and are kept apart here.

Test system: Pseudomonas aeruginosa
Assay: standard agar inclusion test screen, minimum inhibitory concentration against Pseudomonas
Assay type: cell-based
Details: read-out: Minimum inhibitory concentrations (MIC)
Method: Compounds of this invention where R, R', R" and Y are hydrogen have antibacterial activity against a variety of bacteria and are especially active against Pseudomonas. Minimum inhibitory concentrations (MIC), as obtained in a standard agar inclusion test screen, range from 25 to 200 μg/ml against Pseudomonas aeruginosa.

[1] = standard agar inclusion test, Pseudomonas (aeruginosa)

| SMILES | MIC [1] [µg/mL] | MIC (Pseudomonas aeruginosa) [µg/mL] |
| --- | --- | --- |
| NC[C@H]1O[C@H](O[C@H]2[C@H](O)[C@@H](O)[C@H](N)C[C@@H]2N)[C@H](N)[C@@H](S)[C@@H]1O [2-deoxy-4-O-(2,6-diamino-3-mercapto-2,3,6-trideoxy-α-D-glucopyranosyl)-D-streptamine] | 63 (≈ 186 µM) |  |
| NC[C@H]1O[C@H](O[C@H]2[C@H](O)[C@@H](O)[C@H](N)C[C@@H]2N)[C@H](N)[C@@H](O)[C@@H]1S [2-deoxy-4-O-(2,6-diamino-4-mercapto-2,4,6-trideoxy-α-D-glucopyranosyl)-D-streptamine] | 25 (≈ 73.9 µM) |  |
| NC[C@H]1O[C@H](O[C@H]2[C@H](O)[C@@H](O)[C@H](N)C[C@@H]2N)[C@H](N)[C@@H](O)[C@@H]1O [neamine, 2-deoxy-4-O-(2,6-diamino-2,6-dideoxy-α-D-glucopyranosyl)-D-streptamine, reference compound] |  | > 200 |
